Reference: paper PMC4937660, “In vitro evaluation of the effects of 4-aminopyridine on cytochrome P450 enzymes” (Journal of Drug Assessment, 2013)
pIC50: −log10 of the molar value.

Tested on: T1, CYP3A4/5
T1 construct: native enzymes in pooled human liver microsomes (16 samples, XenoTech); read out by testosterone 6beta-hydroxylation and midazolam 1'-hydroxylation
Experiment: testosterone 6beta-hydroxylation in human liver microsomes, HPLC-MS/MS
Type: biochemical
Conditions: direct inhibition, no pre-incubation; testosterone 100 μM (about Km); NADPH-generating system, pH 7.4, 37 °C; read-out: Direct inhibition; 0-min Pre-incubation / IC50
Description: testosterone 6beta-hydroxylation in human liver microsomes, HPLC-MS/MS on CYP3A4/5

Nc1ccncc1 [4-AP] showed a pIC50 of under 4.52.
